Reference: patent US20060084704A1, “Methods and compositions for enhancing degradation of nuclear receptor transcription factors and uses thereof” (priority 2004, published 2006)

Biological target: T1, glucocorticoid receptor (Homo sapiens, UniProt P04150)
T1 construct: endogenous in cells; host or cells: LNCaP
T1 sequence (P04150 1-777): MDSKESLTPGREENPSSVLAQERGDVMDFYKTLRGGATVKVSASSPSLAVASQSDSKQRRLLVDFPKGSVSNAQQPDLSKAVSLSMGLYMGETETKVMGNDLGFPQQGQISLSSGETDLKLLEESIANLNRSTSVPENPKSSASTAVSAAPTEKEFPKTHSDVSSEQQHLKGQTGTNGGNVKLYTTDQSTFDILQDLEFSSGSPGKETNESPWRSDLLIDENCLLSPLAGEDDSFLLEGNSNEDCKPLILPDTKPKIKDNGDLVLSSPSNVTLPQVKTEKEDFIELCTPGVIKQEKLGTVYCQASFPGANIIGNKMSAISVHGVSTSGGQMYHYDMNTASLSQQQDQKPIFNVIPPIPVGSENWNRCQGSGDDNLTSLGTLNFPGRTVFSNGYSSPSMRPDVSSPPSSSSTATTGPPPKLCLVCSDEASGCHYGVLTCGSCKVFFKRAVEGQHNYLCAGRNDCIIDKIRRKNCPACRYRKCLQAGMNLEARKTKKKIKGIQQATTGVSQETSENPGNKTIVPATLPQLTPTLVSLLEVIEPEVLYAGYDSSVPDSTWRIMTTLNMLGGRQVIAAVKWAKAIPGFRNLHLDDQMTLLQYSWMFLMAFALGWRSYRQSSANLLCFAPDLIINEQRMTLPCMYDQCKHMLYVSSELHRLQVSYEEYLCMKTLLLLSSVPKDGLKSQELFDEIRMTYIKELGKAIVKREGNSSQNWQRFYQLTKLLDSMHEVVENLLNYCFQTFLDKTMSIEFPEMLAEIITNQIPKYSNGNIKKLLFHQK
Experiment: Western blot of LNCaP cell lysates, GR
Format: cell-based
Settings: 1 or 2 micromolar, 24 hours, presence or absence of DHT
Procedure: Human prostate cancer LNCaP cells and T47D cells were plated at a density of 7×10^5 cells per 60 millimeter tissue culture dish in […] (RPMI) medium containing 10% FBS. The medium was changed to RPMI or DME medium containing 10% charcoal-stripped serum 24 hours later to deplete cellular androgens or estrogens. After another 24 hours, treatment with the test compounds began. The test dose of JC15 was 1 or 2 micromolar and the test does of JC9 was 1, 5 and 10 micromolar. LNCap cells also received dihydrotestosterone (DHT) (3 nanomolar). Control cells received a corresponding amount of the vehicle, dimethylsulfoxide (DMSO) (<0.04%) for an equivalent exposure time. Cells were incubated with JC15 for 24 or 48 hours, and were lysed in 250 microliters of 1×SDS/PAGE loading buffer. Approximately 40 micrograms of total cellular protein was loaded in each lane of a pre-cast gel (NuPAGE, Invitrogen). Protein separation and transfer were performed following the manufacturer's instructions.
For the prostate cell lysates, androgen receptor (AR) protein was visualized by incubating the resultant membranes with an anti-AR antibody (BD-PharMingen), followed by chemiluminescence detection (ECL Plus, Amersham). […] The resultant protein signals were quantified using densitometry and NIH ImageJ software.

CCOC(=O)CCC(C(=O)C=Cc1ccc(O)c(OC)c1)C(=O)C=Cc1ccc(O)c(OC)c1 (stereo not shown) [JC15, 7-(4-hydroxy-3-methoxyphenyl)-4-[3-(4-hydroxy-3-methoxyphenyl)acryloyl]-5-oxo-hept-6-enoic acid ethyl ester]
cellular concentration of glucocorticoid receptor: did not substantially affect
